Assay results as given in patent publication US10857107B2, “Cannabinoid-containing complex mixtures for the treatment of mast cell-associated or basophil-mediated inflammatory disorders” (priority 2017, dated 2020).
“Also recorded” adds a separate entry of the source. Like-named read-outs stand apart in the source and are kept apart here.

Columns and labels:
Format in all cases: cell-based
[1] = test system: mast cells (from a mast cell line, RBL2H3); experiment: FcεRI ligation-induced mast cell degranulation measured by histamine release (ELISA); details: nanomolar concentration; compared to PMA/Iomomycin (100%)
RBL2H3 cells [2] = experiment: FcεRI-induced degranulation with CBG/CBD, FAAH inhibitor or PDEI pre-incubation (beta-hexoaseaminidase assay); details: for Outcome (normalized cellular degranulation response): T60
Procedure: Experiments were conducted to test the hypothesis that CBG-mediated anti-inflammatory effects, i.e., suppression of degranulation, is by increase of intracellular cAMP and the increase of intracellular cAMP results from CBG's antagonizing effects on the interaction between AEA and CB1/2 receptors. To test this hypothesis, the ability of CBG to decrease FcεRI-induced degranulation was assessed. Mast cells were incubated with or without CBG before addition of FcεRI. An FAAH inhibitor was used as a control to increase the levels of AEA and thus saturate the CB1/2 receptors, resulting in decreased cAMP. PDEI was used as a control to directly increase the levels of intracellular cAMP. Cells were also incubated with CBD alone or CBG and CBD to assess the synergistic effects of CBD and CBG.
RBL2H3 cells were pre-incubated for 3 h at 37° C. at with (i) 10 μM FAAH inhibitor LY2183240/PF750 cocktail, (ii) 10 μM PDEI 3-isobutyl-1-methylxanthine (IBMX), or (iii) vehicle (Table 3). Vehicle or 300 nM CBG (30% of the CBG dose previously determined to cause maximal enhancement of the suppressive effect of CBD) was applied to Groups D-F and J-I, the first—one hour prior to FcεRI-induction—and the second—two hour prior to FcεRI-induction (T0, antigen), and remained throughout the course of the experiment. Vehicle was DMSO, methanol, or PBS. 10 μM CBD was additionally added to Groups D-I, 20 minutes prior to FcεRI-induction of degranulation. Cellular degranulation was measured using a beta-hexoaseaminidase assay at 1 h post-induction (T60). Replicates were done in triplicate and averaged. Degranulation of each of the groups was normalized to Row L. The outcome data presented in the column “Outcome” of Table 3 is the normalized cellular degranulation response of each averaged group. Group ABC was p<0.005 relative to Group LMN. Group GHI was p<0.005 relative to Group LMN. Row F had no significant difference relative to Row D. Row E was p<0.05 relative to Row D.

[3] = test system: mast cells (from a mast cell line, RBL2H3); experiment: FcεRI ligation-induced mast cell degranulation measured by histamine release (ELISA); details: for inhibition at 10 µM: Rattus norvegicus; for anti-inflammatory effects on mast cell degranulation (in words): individual compound alone, 10 μM, histamine release; for increase of FcεRI ligation-induced histamine secretion: compound alone at 10 μM (FIG. 5)
Procedure: For the FcεRI assay, mast cells (from a mast cell line, RBL2H3) were plated in cluster plates at 5×10^4 cells/well. Monolayers were washed and incubated in 200 μl Tyrode's buffer. The mast cells were then primed with 1 μg/ml IgE-anti-DNP antibodies for 16 hours. The cells were then washed three times and a cannabinoid-containing complex mixture, prepared as above-described, was applied. The tested complex mixtures were applied in an amount calculated to expose the mast cells to 10 μM of cannabidiol and 10 μM of each minor cannabinoid or terpene component. Control for maximal FcεRI ligation-induced degranulation included no cannabinoid-containing complex mixture.
After 10 minutes, 250 ng/ml of DNP-BSA was applied to ligate FcεRI molecules on the mast cell surface.
Mast cell culture medium was collected 60 minutes after exposure to DNP-BSA with or without a tested cannabinoid-containing complex mixture. Degranulation of the mast cells was tested by measuring histamine release using a commercial ELISA kit (e.g., histamine ELISA kit available from ENZO Life Sciences, Inc., Rocky Mountain Diagnostics, Inc., etc.).
Mast cell degranulation for each tested complex mixture was measured based on the amount of histamine release and is presented as % histamine release compared to histamine release in response to PMA/Ionomycin (100%). Each complex mixture was tested in twenty-four (8×3) independent experiments and data from the twenty four independent experiments were averaged. The averaged values are presented as a bar for each complex mixture in FIG. 2. Standard deviations are also provided in the graph.
The % degranulation in response to each cannabinoid-containing complex mixture was used to calculate % inhibition of degranulation by subtracting the % degranulation from 100%.
Anti-inflammatory effects of (i) each major cannabinoid, (ii) each minor cannabinoid, and (iii) each selected terpene, were assessed based on their inhibition of FcεRI-induced mast cell degranulation by measuring histamine release as described above.
Their anti-inflammatory effects are presented as % reduction of histamine release in the presence of the tested compound compared to the histamine release in the presence of PMA/Ionomycin (0%). Standard deviations of the experimental data are also provided in the graphs.

Mast cells [4] = experiment: FcεRI-induced mast cell degranulation, beta-hexoseaminidase assay (dose response); details: for change of anti-inflammatory effects when 10 μM cannabigerol was added: various concentrations (1 nM to 50 μM) plus 10 μM cannabigerol; for IC50: read-out: IC50 of inhibitory effects on FcεRI-induced degranulation
Procedure: As provided in FIG. 12, anti-inflammatory effects of limonene, and cannabidiol (CBD), were assessed at 11 different concentrations (x-axis: 0, 1, 5, 10, 50, 100, 500, 1000, 5000, 10000, 50000 nM) in the presence (a line with triangles and a line with circles, respectively) or absence of 10 μM cannabigerol (CBG-a line with diamonds and a line with exes, respectively). In this experiment, anti-inflammatory effects of the mixtures were based on effects on mast cell degranulation, measured using a beta-hexoseaminidase assay.
Beta-hexoseaminidase assays: Mast cells were primed with anti-DNPA IgE, and then stimulated with DNP-BSA in the presence of absence of a tested composition as described in Example 2. Mast cell culture medium was collected 60 minutes after exposure to FcεRI and incubated for 45 minutes at 37° C. 25 μl of its supernatant was removed, clarified by microcentrifugation, and transferred to a 96 well plate containing 100 μl per well 1 mM p-N-acetyl glucosamine (Sigma) in 0.05 M citrate buffer pH 4.5. After incubating the mixture for 1 hour at 37° C., the reaction was quenched by addition of 100 μl per well 0.2 M glycine, pH 9.0. Beta-hexosaminidase levels were read as OD at 405 nm.

Mast cells [5] = experiment: Histamine release with cannabidivarin, with or without FcεRI ligation (time course)
Procedure: FIG. 7A provides data from Example 3 illustrating pro-inflammatory effects of cannabidivarin. […] The X-axis represents minutes after application of the FcεRI crosslinking agonist, and the y-axis represents the amount of histamine release (pg/10 million cells). FIG. 7B compares histamine release (pg/10 million cells) measured 10 minutes after exposure to the FcεRI crosslinking agonist (left) or to cannabidivarin without the FcεRI crosslinking agonist (right).
The x-axis represents minutes after application of BSA-DNP and y-axis represents the amount of histamine release (pg/10 million cells). Pro-inflammatory effects of cannabidivarin was even greater than effects of FcεRI ligation; histamine release in response to FcεRI ligation was about 220 pg/10 million cells after 10 minute exposure, while histamine release in response to cannabidivarin (without concurrent FcεRI ligation) was about 340 pg/10 million cells.

RBL2H3 cells [6] = experiment: Intracellular free calcium assay (Fluo-4); details: external calcium 1 mM
Procedure: FIG. 16 provides data from Example 6 illustrating the intracellular free calcium measurements in the presence of external calcium (1 mM) in RBL2H3 cells stimulated in the absence (control vehicle) or presence of 1, 10, or 50 μM CBG. Ionomycin was used as a positive control. Stimuli were added at 20 s.
RBL2H3 cells were washed and incubated with 0.2 μM Fluo-4 for 30 minutes at 37° C. in a standard modified Ringer's solution (145 mM NaCl, 2.8 mM KC1, 10 mM CsCl, +/−1-10 mM CaCl2, 2 mM MgCl2, 10 mM glucose, 10 mM HEPES, pH 7.4, 330 mOsm). Cells were transferred to 96-well plates at 50,000 cells/well and stimulated with 1, 10, or 50 μM CBG. 500 nM ionomycin was used as positive control to induce calcium response. Calcium signals were acquired using a Flexstation 3 (Molecular Devices, Sunnydale, USA) for 3 min. Data was analyzed using SoftMax® Pro 5 (Molecular Devices).

[7] = Antigen at T0, only the named substance(s), otherwise vehicle, 300 nM CBG, 10 μM CBD, 10 μM LY2183240/PF750 or IBMX, normalized to Row L
[8] = RBL-2H3, read-out: % inhibition of FcεRI-induced degranulation (reduction of histamine secretion)
[9] = Antigen at T0, cells pre-incubated 3 h with 10 μM FAAH inhibitor LY2183240/PF750 cocktail, 300 nM CBG, 10 μM CBD
[10] = Antigen at T0, cells pre-incubated 3 h with 10 μM PDEI IBMX, 300 nM CBG, 10 μM CBD

## CCCCCCC(C)(C)c1ccc([C@@H]2C[C@H](O)CC[C@H]2CCCO)c(O)c1 [CP55940]
[1]
  suppression of histamine release of mast cells: about 30%

## CC(C)Cn1c(=O)n(C)c(=O)c2[nH]cnc21 [IBMX, 3-isobutyl-1-methylxanthine]
RBL2H3 cells [2]; [7]
  Outcome (normalized cellular degranulation response): 0.34
RBL2H3 cells [2]; alone, 10 μM, Row N
  reduction of FcεRI-induced degranulation: 3 fold
RBL2H3 cells [2]; no Antigen (vehicle at T0), 10 μM pre-incubation 3 h
  Outcome (normalized cellular degranulation response): 0.06

## CCCCCc1cc(O)c2c(c1)OC(C)(CCC=C(C)C)C=C2 (stereo not drawn) [cannabichromene]
[3]; [8]
  inhibition at 10 µM: ≤ 20%
[3]
  anti-inflammatory effects on mast cell degranulation (in words): almost no anti-inflammatory effects

## C=C(C)[C@@H]1CCC(C)=C[C@H]1c1c(O)cc(CCCCC)cc1O [cannabidiol]
[3]; RBL-2H3, read-out: % inhibition of FcεRI-induced degranulation (reduction of histamine secretion), individual compound alone at 10 μM
  inhibition at 10 µM: 23%
Mast cells [4]
  change of anti-inflammatory effects when 10 μM cannabigerol was added: significantly enhanced their anti-inflammatory effects
RBL2H3 cells [2]; [9]
  Outcome (normalized cellular degranulation response): 0.56
RBL2H3 cells [2]; [10]
  Outcome (normalized cellular degranulation response): 0.32
RBL2H3 cells [2]; [7]
  Outcome (normalized cellular degranulation response): 0.54

## C=C(C)[C@@H]1CCC(C)=C[C@H]1c1c(O)cc(CCC)cc1O [cannabidivarin]
[3]
  increase of FcεRI ligation-induced histamine secretion: 26%
[3]; listed as Cannabidivarin
  increase of FcεRI ligation-induced histamine secretion: more than 20%
Mast cells [5]; in response to cannabidivarin without concurrent FcεRI ligation, 10 minute exposure
  histamine release: about 340 pg/10 million cells
Mast cells [5]; pretreatment with 10 μM for 10 minutes before FcεRI ligation
  effect of pretreatment on FcεRI ligation-induced histamine release: significantly enhanced pro-inflammatory effects of FcεRI ligation; also recorded: further enhanced pro-inflammatory effects

## CCCCCc1cc(O)c(C/C=C(\C)CCC=C(C)C)c(O)c1 [cannabigerol]
[3]; [8]
  inhibition at 10 µM: ≤ 20%
[3]
  anti-inflammatory effects on mast cell degranulation (in words): almost no anti-inflammatory effects
[3]; listed as Cannabigerol
  anti-inflammatory effects on mast cell degranulation (in words): does not have significant effects on mast cell degranulation
Mast cells [4]; alone, at the highest concentration tested (50 μM)
  suppression of FcεRI ligation-induced degranulation: less than 10%
RBL2H3 cells [2]; [9]
  Outcome (normalized cellular degranulation response): 0.92
RBL2H3 cells [2]; [10]
  Outcome (normalized cellular degranulation response): 0.28
RBL2H3 cells [2]; [7]
  Outcome (normalized cellular degranulation response): 0.98
RBL2H3 cells [6]; 50 μM
  effect on intracellular calcium: moderate increase in intracellular calcium
RBL2H3 cells [6]; lower doses (1 and 10 μM)
  effect on intracellular calcium: did not significantly alter the intracellular calcium

## CCCCCc1cc(O)c2c(c1)OC(C)(C)c1ccc(C)cc1-2 [cannabinol]
[3]; [8]
  inhibition at 10 µM: ≤ 20%

## C=C(C)[C@H]1CC=C(C)CC1 [limonene]
[3]; individual compound alone at 10 μM
  % inhibition of FcεRI-induced degranulation (reduction of histamine secretion): 24%
Mast cells [4]; alone
  IC50: ~480 nM
Mast cells [4]; in combination with 10 μM cannabigerol (CBG)
  IC50: ~100 nM
Mast cells [4]
  change of anti-inflammatory effects when 10 μM cannabigerol was added: significantly enhanced their anti-inflammatory effects

## C=CC(C)(O)CCC=C(C)C (stereo not drawn) [linalool]
[3]
  anti-inflammatory effects on mast cell degranulation (in words): almost no anti-inflammatory effects

## C=CC(C)(O)CCC=C(C)CCC=C(C)C (stereo not drawn) [nerolidol]
[3]
  anti-inflammatory effects on mast cell degranulation (in words): almost no anti-inflammatory effects

## C/C(=C\CO)CCC[C@H](C)CCC[C@H](C)CCCC(C)C [phytol]
[3]
  anti-inflammatory effects on mast cell degranulation (in words): almost no anti-inflammatory effects

## CC1=CCC2CC1C2(C)C (stereo not drawn) [pinene]
[3]
  anti-inflammatory effects on mast cell degranulation (in words): almost no anti-inflammatory effects
